Experimental findings from ChEMBL document CHEMBL3769345, “Rapid Synthesis of Boc-2',6'-dimethyl-l-tyrosine and Derivatives and Incorporation into Opioid Peptidomimetics” (ACS Med Chem Lett, 2015) are described below.

Experiment [1] has as its target T1, Mu-type opioid receptor (Rattus norvegicus, UniProt P33535). Kind of experiment: Displacement of [3H]diprenorphine from rat MOR expressed in rat C6 cells after 1 hr by liquid scintillation counting method. Type of experiment: cell-based.
For experiment [2], the target named is T2, Delta-type opioid receptor (Rattus norvegicus, UniProt P33533). The experiment can be described thus: Displacement of [3H]diprenorphine from rat DOR expressed in rat C6 cells after 1 hr by liquid scintillation counting method. Type of experiment: cell-based. For orientation: In a radioligand displacement assay an active substance lowers the binding of a labelled ligand.

For experiment [3], the target named is T3, Kappa-type opioid receptor (Homo sapiens, UniProt P41145). The experiment can be described thus: Displacement of [3H]diprenorphine from human KOR expressed in CHO cells after 1 hr by liquid scintillation counting method. Type of experiment: cell-based.
For experiment [4], the target named is T1, Mu-type opioid receptor. Kind of experiment: Agonist activity at rat MOR expressed in rat C6 cells after 1 hr by [35S]GTPgammaS binding assay. Type of experiment: functional, cell-based.
For experiment [5], the target named is T2, Delta-type opioid receptor. The experiment can be described thus: Agonist activity at rat DOR expressed in rat C6 cells after 1 hr by [35S]GTPgammaS binding assay. It is filed as functional, cell-based. (Binding of GTPγS marks nucleotide exchange on a G protein.)
Experiment [6] has as its target T3, Kappa-type opioid receptor. The experiment can be described thus: Agonist activity at human KOR expressed in CHO cells after 1 hr by [35S]GTPgammaS binding assay. Type of experiment: functional, cell-based.
Experiment [7] concerns the target Mu-type opioid receptor (Rattus norvegicus) (UniProt P33535). Kind of experiment: Agonist activity at rat MOR expressed in rat C6 cells at 10 uM after 1 hr by [35S]GTPgammaS binding assay relative to DAMGO. Type of experiment: functional, cell-based.
Experiment [8] deals with T3, Kappa-type opioid receptor. Kind of experiment: Agonist activity at human KOR expressed in CHO cells at 10 uM after 1 hr by [35S]GTPgammaS binding assay relative to U69,593. Type of experiment: functional, cell-based.
The target of experiment [9] is Delta-type opioid receptor (Rattus norvegicus) (UniProt P33533). The experiment can be described thus: Agonist activity at rat DOR expressed in rat C6 cells at 10 uM after 1 hr by [35S]GTPgammaS binding assay relative to DPDPE. It is filed as functional, cell-based.

Calls of active or inactive are those of the source. The rule behind the calls is not given here.

Sequence of Mu-type opioid receptor (Rattus norvegicus) (P33535 whole entry): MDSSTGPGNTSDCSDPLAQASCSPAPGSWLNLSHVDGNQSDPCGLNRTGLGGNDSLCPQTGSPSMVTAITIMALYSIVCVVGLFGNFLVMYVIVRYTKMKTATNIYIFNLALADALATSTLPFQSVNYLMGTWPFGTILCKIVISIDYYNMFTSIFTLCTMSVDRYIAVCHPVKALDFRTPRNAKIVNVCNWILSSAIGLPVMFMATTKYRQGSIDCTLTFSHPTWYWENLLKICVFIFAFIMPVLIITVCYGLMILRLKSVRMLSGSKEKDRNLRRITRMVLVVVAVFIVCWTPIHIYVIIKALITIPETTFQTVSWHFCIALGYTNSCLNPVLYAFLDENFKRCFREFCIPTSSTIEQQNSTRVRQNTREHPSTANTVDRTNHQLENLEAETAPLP
T1 sequence (P33535 whole entry): as above
T2 sequence (P33533 whole entry): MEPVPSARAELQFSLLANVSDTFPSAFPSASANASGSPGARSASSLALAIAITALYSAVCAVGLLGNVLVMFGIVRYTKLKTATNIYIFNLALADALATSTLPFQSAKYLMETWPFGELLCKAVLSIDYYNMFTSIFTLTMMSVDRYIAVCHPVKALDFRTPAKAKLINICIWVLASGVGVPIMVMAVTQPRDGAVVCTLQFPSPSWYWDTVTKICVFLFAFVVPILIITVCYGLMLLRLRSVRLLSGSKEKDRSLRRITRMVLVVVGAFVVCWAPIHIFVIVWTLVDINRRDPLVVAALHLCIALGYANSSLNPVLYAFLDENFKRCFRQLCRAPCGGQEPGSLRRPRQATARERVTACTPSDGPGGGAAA
T3 sequence (P41145 whole entry): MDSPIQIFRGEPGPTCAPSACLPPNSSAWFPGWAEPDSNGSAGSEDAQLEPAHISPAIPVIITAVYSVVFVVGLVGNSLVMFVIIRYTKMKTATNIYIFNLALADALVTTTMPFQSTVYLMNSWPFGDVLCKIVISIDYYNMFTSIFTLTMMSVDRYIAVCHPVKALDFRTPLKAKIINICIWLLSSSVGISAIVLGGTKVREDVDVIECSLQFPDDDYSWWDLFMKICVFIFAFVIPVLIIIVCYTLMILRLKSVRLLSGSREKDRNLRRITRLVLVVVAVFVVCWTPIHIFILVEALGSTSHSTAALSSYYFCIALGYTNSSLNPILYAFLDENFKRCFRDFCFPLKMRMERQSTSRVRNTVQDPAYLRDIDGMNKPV
Sequence of Delta-type opioid receptor (Rattus norvegicus) (P33533 whole entry): as the sequence (P33533 whole entry) above

Turning to `Cc1cc(O)ccc1C[C@H](N)C(=O)N[C@@H]1CCNc2ccc(Cc3ccccc3)cc21`, the figures for the Ki (at Mu-type opioid receptor [1]; in experiment [2]; in [3]) were 0.0017 µM, 0.042 µM and 0.096 µM, respectively. The EC50 was 0.044 µM on Mu-type opioid receptor [4], “Not Active” in experiment [5] (c6) and 2.4 µM in experiment [6]. Also, the max activation in experiment [7] stood at 69%; in experiment [8] it was 41%.

Regarding `Cc1cccc(C)c1C[C@H](N)C(=O)N[C@@H]1CCNc2ccc(Cc3ccccc3)cc21`, the Ki at Mu-type opioid receptor [1] worked out at 0.018 µM; in experiment [2] it was 0.66 µM; in experiment [3], 0.13 µM. Further, the values for the concentration giving a half-maximal response (EC50) (on Mu-type opioid receptor [4]; in [5] (c6); in [6]) were 0.28 µM, “Not Active” and 4.8 µM, respectively. The max activation in experiment [7] came to 86%; in experiment [8], 38%.

Regarding `N[C@@H](Cc1c(Cl)cc(O)cc1Cl)C(=O)N[C@@H]1CCNc2ccc(Cc3ccccc3)cc21`, the inhibition constant (Ki) was found to be 0.00047 µM at Mu-type opioid receptor [1], 0.037 µM in [2] and 0.035 µM in experiment [3]. Moreover, the EC50 is 0.033 µM on Mu-type opioid receptor [4], “Not Active” in [5] (c6) and 1.2 µM in [6]. Moreover, the max activation in [7] was 83%; in [8] it was 32%. The max activation entry in [9] is “inactive”.

For `Cc1cc(C[C@H](N)C(=O)N[C@@H]2CCNc3ccc(Cc4ccccc4)cc32)c(C)cc1O`, the inhibition constant (Ki) at Mu-type opioid receptor [1] is 0.0065 µM; in experiment [2], 0.39 µM; in [3] it was 0.73 µM. The concentration giving a half-maximal response (EC50) on Mu-type opioid receptor [4] was determined as 0.039 µM; in experiment [5] (read-out: EC50), 5.9 µM; in experiment [6], 0.37 µM. For the same compound, the figures for the max activation in experiment [7], in experiment [9] and in experiment [8] were 89%, 53% and 22%, respectively.

Regarding `N[C@@H](Cc1ccc2cccc(O)c2c1)C(=O)N[C@@H]1CCNc2ccc(Cc3ccccc3)cc21`, the Ki came out at 0.44 µM on Mu-type opioid receptor [1], 1.6 µM in experiment [2] and 2.5 µM in experiment [3].

Broadly, the Ki is the equilibrium dissociation constant of an inhibitor or competing ligand from its target. As a reminder, the EC50 is the concentration that produces a half-maximal response.
